Like-named read-outs stand apart in the source and are kept apart here. Some results are limits rather than exact numbers.

This note sets out measurements from patent publication US9681664B2, “Macrocyclic picolinamides as fungicides” (Dow Agrosciences LLC, priority 2012, dated 2017).

Holding throughout (format): in vivo
In assay [1] the test system is Mycosphaerella graminicola; Anamorph: Septoria tritici. Briefly: Leaf blotch of wheat (SEPTTR) disease control on wheat seedlings. To be noted: Zymoseptoria tritici, High volume application, 100 ppm. Summed up: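 Wheat seedlings (Yuma, first leaf emerged) sprayed to run-off with compound in acetone/water with 110 ppm Triton X-100, or track-sprayed as EC with 0.1% Trycol 5941. Septoria tritici spores inoculated before or after treatment. Dew chambers, then 20 °C greenhouse. Percent disease control derived from severity (0–100%) relative to untreated plants.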

In assay [2] the test system is Puccinia triticina; Synonym: Puccinia recondite f. sp. tritici. Briefly: Wheat brown rust (PUCCRT) disease control on wheat seedlings. To be noted: Puccinia triticina, High volume application, 100 ppm. Summed up:
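Acetone solutions diluted in nine volumes of water with 110 ppm Triton X-100 sprayed to run-off on first-leaf Yuma wheat seedlings (track spray: EC with 0.1% Trycol 5941). Puccinia triticina spores inoculated before or after treatment; overnight dark dew at 22° C., 100% RH, then greenhouse at 24° C. for disease development.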

A further assay has as its system Uncinula necator. The assay is described as follows: Grape powdery mildew (UNCINE) disease control. Particulars: Erysiphe necator, 24 h, High volume application, 1 Day Protectant, read-out: UNCINE 1 DP disease control. As to the method:
Technical grades of materials were dissolved in acetone, which were then mixed with nine volumes of water containing 110 ppm Triton X-100. The fungicide solutions were applied onto wheat seedlings using an automated booth sprayer to run-off. All sprayed plants were allowed to air dry prior to further handling. All fungicides were evaluated using the aforementioned method for their activity vs. all target diseases. Wheat leaf blotch and brown rust activity were also evaluated using track spray applications, in which case the fungicides were formulated as EC formulations, containing 0.1% Trycol 5941 in the spray solutions. Grape seedlings (variety Carignane) were grown in soil-less Metro mix, with one plant per pot, and used in the test when approximately one month old. Plants were inoculated 24 hr after fungicide treatment by shaking spores from infected leaves over test plants. Plants were maintained in a greenhouse set at 20° C. until disease was fully developed. Fungicide formulation, application and disease assessment on the sprayed leaves followed the procedures as described in the Example A.

The subject of another assay is Erysiphe cichoracearum. Briefly: Powdery mildew of cucumber (ERYSCI) disease control. To be noted: Golovinomyces cichoracearum, 24 h, 1 Day Protectant, high volume, read-out: Disease Control ERYSCI 1 DP. As to the method:
Technical grades of materials were dissolved in acetone, which were then mixed with nine volumes of water containing 110 ppm Triton X-100. The fungicide solutions were applied onto wheat seedlings using an automated booth sprayer to run-off. All sprayed plants were allowed to air dry prior to further handling. All fungicides were evaluated using the aforementioned method for their activity vs. all target diseases. Wheat leaf blotch and brown rust activity were also evaluated using track spray applications, in which case the fungicides were formulated as EC formulations, containing 0.1% Trycol 5941 in the spray solutions. Cucumber seedlings (variety Bush Pickle) were grown in soil-less Metro mix, with one plant per pot, and used in the test when 12 to 14 days old. Plants were inoculated with a spore suspension 24 hr following fungicide treatments. After inoculation the plants remained in the greenhouse set at 20° C. until disease was fully expressed. Fungicide formulation, application and disease assessment on the sprayed leaves followed the procedures as described in the Example A.

For the next assay, the system named is Phakopsora pachyrhizi. Briefly: Asian soybean rust (PHAKPA) disease control. To be noted: topical, high volume. Put shortly: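 Compounds in acetone diluted with nine volumes water containing 0.011% Tween 20, sprayed to run-off on two-week-old Williams 82 soybean seedlings, inoculated 3 days before or 1 day after treatment. Plants held 24 h in dark dew room at 22 °C, 100% RH, then at 23 °C; disease severity scored on sprayed leaves.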

The test system of assay [3] is Blumeria graminis f. sp. hordei; Synonym: Erysiphe graminis f. sp. hordei. Briefly: Barley powdery mildew (ERYSGH) disease control. To be noted: 24 h, 1 Day Protectant, high volume, read-out: Disease Control ERYSGH 1 DP. As to the method: Technical grades of materials were dissolved in acetone, which were then mixed with nine volumes of water containing 110 ppm Triton X-100. The fungicide solutions were applied onto wheat seedlings using an automated booth sprayer to run-off. All sprayed plants were allowed to air dry prior to further handling. All fungicides were evaluated using the aforementioned method for their activity vs. all target diseases. Wheat leaf blotch and brown rust activity were also evaluated using track spray applications, in which case the fungicides were formulated as EC formulations, containing 0.1% Trycol 5941 in the spray solutions. Barley seedlings (variety Harrington) were propagated in soil-less Metro mix, with each pot having 8 to 12 plants, and used in the test when first leaf was fully emerged. Test plants were inoculated by dusting with infected stock plants 24 hr after fungicide treatments. After inoculation the plants were kept in a greenhouse set at 20° C. for disease to develop. Fungicide formulation, application and disease assessment on the sprayed leaves followed the procedures as described in the Example A.

In assay [4] the test system is Magnaporthe grisea; Anamorph: Pyricularia oryzae. The assay is described as follows: whole plant or invertebrate. To be noted: 24 h, read-out: PYRIOR 1 DP disease control.
Setting [5] is: 24 h, 1 Day Protectant, read-out: SEPTTR 1DP disease control.
The mark [6] stands for this setting: 72 h, 3 Day Curative, read-out: SEPTTR 3DC disease control.
[7] abbreviates: 24 h, 1 Day Protectant, read-out: PUCCRT 1DP disease control.
The mark [8] stands for this setting: 72 h, 3 Day Curative, read-out: PUCCRT 3DC disease control.
[9] abbreviates: 24 h, 1 Day Protectant, read-out: Disease Control PHAKPA 1DP.
The mark [10] stands for this setting: 72 h, 3 Day Curative, read-out: Disease Control PHAKPA 3DC.

Regarding `COc1ccnc(C(=O)N[C@H]2CCC[C@H](OCC(C)C)[C@@H](Oc3ccccc3)[C@H](C)OC2=O)c1OCOC(=O)C(C)C` [F34], the pest or weed control at 100 ppm in assay [1] (setting [5]) was in the range of 80 to 100%; in assay [1] (setting [6]) it was 80 to 100%; in assay [2] (setting [7]) it was 80 to 100%; in assay [2] (setting [8]), 80 to 100%; with Uncinula necator, 0 to 80%; in the assay with Erysiphe cichoracearum, 0 to 80%. Besides, the pest or weed control at 100 ppm in assay [3] fell in the range of 0 to 80%; in assay [4], 80 to 100%. The pest or weed control at 25 ppm in the assay on Phakopsora pachyrhizi (setting [9]) and with Phakopsora pachyrhizi (setting [10]) was 80 to 100% each time.
In the case of `COc1ccnc(C(=O)N[C@H]2CCC[C@H](Oc3ccccc3)[C@@H](OCC(C)C)[C@H](C)OC2=O)c1OCOC(=O)C(C)C` [F35], the pest or weed control at 100 ppm (in assay [1] (setting [5]); in assay [1] (setting [6]); in assay [2] (setting [7]); in assay [2] (setting [8]); with Uncinula necator; in the assay with Erysiphe cichoracearum) was 80 to 100% throughout. Besides, the pest or weed control at 100 ppm in assay [3] and in assay [4] was 80 to 100% in each case. Also, the pest or weed control at 25 ppm with Phakopsora pachyrhizi (setting [9]) lay in the range of 80 to 100%.
Take `COc1ccnc(C(=O)N[C@H]2CCC[C@H](Oc3ccccc3)[C@@H](Oc3ccccc3)[C@H](C)OC2=O)c1OCOC(=O)C(C)C` [F36]: the pest or weed control at 100 ppm in assay [1] (setting [5]) fell in the range of 80 to 100%; in assay [1] (setting [6]), 80 to 100%; in assay [2] (setting [7]) it was 80 to 100%; in assay [2] (setting [8]), 80 to 100%; with Uncinula necator, 0 to 80%; in the assay on Erysiphe cichoracearum, 0 to 80%. Besides, the pest or weed control at 100 ppm in assay [3] fell in the range of 0 to 80%; in assay [4], 80 to 100%. Moreover, the pest or weed control at 25 ppm in the assay with Phakopsora pachyrhizi (setting [9]) and in the assay with Phakopsora pachyrhizi (setting [10]) was 80 to 100% each time.
On to `COc1ccnc(C(=O)N[C@H]2CCC[C@H](OCC(C)C)[C@@H](OCC(C)C)[C@H](C)OC2=O)c1OCOC(=O)C(C)C` [F37], for which the pest or weed control at 100 ppm (in assay [1] (setting [5]); in assay [1] (setting [6]); in assay [2] (setting [7]); in assay [2] (setting [8]); with Uncinula necator; with Erysiphe cichoracearum) was 80 to 100% each time. Further, the pest or weed control at 100 ppm in assay [3] and in assay [4] was 80 to 100% in each case. Further, the pest or weed control at 25 ppm in the assay on Phakopsora pachyrhizi (setting [9]) was 80 to 100%.
Regarding `COc1ccnc(C(=O)N[C@H]2CCC[C@H](OCC(C)C)[C@@H](OC3CCCC3)[C@H](C)OC2=O)c1OCOC(=O)C(C)C` [F38], the pest or weed control at 100 ppm (in assay [1] (setting [5]); in assay [1] (setting [6]); in assay [2] (setting [7]); in assay [2] (setting [8]); in the assay on Uncinula necator; with Erysiphe cichoracearum) was 80 to 100% each time. In addition, the pest or weed control at 100 ppm in assay [3] and in assay [4] was 80 to 100% in each case. For the same molecule, the pest or weed control at 25 ppm with Phakopsora pachyrhizi (setting [9]) and in the assay with Phakopsora pachyrhizi (setting [10]) was 80 to 100% throughout.
As to `COc1ccnc(C(=O)N[C@H]2CCC[C@H](OCC(C)C)[C@@H](OC3CCCC3)[C@H](C)OC2=O)c1OCOC(C)=O` [F39], the pest or weed control at 100 ppm in assay [1] (setting [5]) lay within 80 to 100%; in assay [1] (setting [6]) it was 80 to 100%; in assay [2] (setting [7]) it was 80 to 100%; in assay [2] (setting [8]), 80 to 100%; with Uncinula necator it was 0 to 80%; with Erysiphe cichoracearum, 80 to 100%. The pest or weed control at 100 ppm in assay [3] and in assay [4] was 80 to 100% throughout. The pest or weed control at 25 ppm in the assay with Phakopsora pachyrhizi (setting [9]) and in the assay with Phakopsora pachyrhizi (setting [10]) was 80 to 100% in each case.
Take `COc1ccnc(C(=O)N[C@H]2CCC[C@H](Oc3ccccc3)[C@@H](OCCCc3ccccc3)[C@H](C)OC2=O)c1OCOC(C)=O` [F130]: the pest or weed control at 100 ppm was 80 to 100% in assay [1] (setting [5]); 80 to 100% in assay [1] (setting [6]); 80 to 100% in assay [2] (setting [7]); 80 to 100% in assay [2] (setting [8]); 0 to 80% in the assay with Uncinula necator; 80 to 100% with Erysiphe cichoracearum. The pest or weed control at 100 ppm in assay [3] fell in the range of 0 to 80%; in assay [4], 80 to 100%. The pest or weed control at 25 ppm was 80 to 100% in the assay with Phakopsora pachyrhizi (setting [9]) and 0 to 80% in the assay with Phakopsora pachyrhizi (setting [10]).
For `CCCO[C@H]1CCC[C@H](NC(=O)c2nccc(OC)c2OCOC(C)=O)C(=O)O[C@@H](C)[C@@H]1Oc1ccccc1` [F138], the pest or weed control at 100 ppm in assay [1] (setting [5]) lay in the range of 80 to 100%; in assay [1] (setting [6]) it was 80 to 100%; in assay [2] (setting [7]), 80 to 100%; in assay [2] (setting [8]), 80 to 100%; in the assay on Uncinula necator it was 0 to 80%; with Erysiphe cichoracearum it was 0 to 80%. In addition, the pest or weed control at 100 ppm in assay [3] is 0 to 80%; in assay [4], 80 to 100%. Moreover, the pest or weed control at 25 ppm in the assay on Phakopsora pachyrhizi (setting [9]) and with Phakopsora pachyrhizi (setting [10]) was 80 to 100% in each case.
As to `CCCO[C@H]1CCC[C@H](NC(=O)c2nccc(OC)c2OCOC(=O)C(C)C)C(=O)O[C@@H](C)[C@@H]1Oc1ccccc1` [F139], the pest or weed control at 100 ppm was 80 to 100% in assay [1] (setting [5]); 80 to 100% in assay [1] (setting [6]); 80 to 100% in assay [2] (setting [7]); 80 to 100% in assay [2] (setting [8]); 0 to 80% with Uncinula necator; 0 to 80% in the assay on Erysiphe cichoracearum. Further, the pest or weed control at 100 ppm in assay [3] was less than 0%; in assay [4], 80 to 100%. The pest or weed control at 25 ppm with Phakopsora pachyrhizi (setting [9]) and in the assay on Phakopsora pachyrhizi (setting [10]) was 80 to 100% throughout.
On to `CCCO[C@H]1CCC[C@H](NC(=O)c2nccc(OC)c2OC(=O)CCOC)C(=O)O[C@@H](C)[C@@H]1Oc1ccccc1` [F140], for which the pest or weed control at 100 ppm in assay [1] (setting [5]) is 80 to 100%; in assay [1] (setting [6]), 80 to 100%; in assay [2] (setting [7]) it was 80 to 100%; in assay [2] (setting [8]), 80 to 100%; with Uncinula necator it was 0 to 80%; in the assay with Erysiphe cichoracearum it was less than 0%. Further, the values for the pest or weed control at 100 ppm in assay [3] and in assay [4] were 0 to 80% and 80 to 100%, respectively. The pest or weed control at 25 ppm in the assay with Phakopsora pachyrhizi (setting [9]) and in the assay with Phakopsora pachyrhizi (setting [10]) was 80 to 100% throughout.
Take `CCCO[C@H]1CCC[C@H](NC(=O)c2nccc(OC)c2OC(C)=O)C(=O)O[C@@H](C)[C@@H]1Oc1ccccc1` [F141]: the pest or weed control at 100 ppm in assay [1] (setting [5]) is 80 to 100%; in assay [1] (setting [6]), 80 to 100%; in assay [2] (setting [7]), 80 to 100%; in assay [2] (setting [8]), 80 to 100%; in the assay with Uncinula necator, 0 to 80%; in the assay on Erysiphe cichoracearum, 0 to 80%. Further, the pest or weed control at 100 ppm in assay [3] and in assay [4] was 80 to 100% in each case. The pest or weed control at 25 ppm with Phakopsora pachyrhizi (setting [9]) and in the assay with Phakopsora pachyrhizi (setting [10]) was 80 to 100% each time.
